From US20100247533A1, “TREATMENT WITH A HUMANIZED ANTI-EGFR IgG1 ANTIBODY AND IRINOTECAN” (priority 2009, published 2010)

Legend:
[1] = tested on: A549 lung adenocarcinoma xenografts; test: Animal survival study in vivo, A549 lung adenocarcinoma xenograft model; set-up: species or system SCID beige mice
Protocol: Partially fucosylated GlycArt-mAb was provided as stock solution (c=11.3 mg/ml), in a buffer containing histidine, trehalose and polysorbate 20. The antibody stock solution was appropriately diluted in PBS prior to injection.
The antibody concentration was adjusted by dilution of the reconstituted stock solution prior to injection.
Irinotecan/CPT-11 (Campto®) was purchased as clinical formulation (20 mg/ml) from Pfizer Pharma GmbH, Karlsruhe, Germany. The antibody concentration was adjusted by dilution of the reconstituted stock solution prior to injection.
A549 human Non Small Cell Lung Cancer (NSCLC) cells were obtained from ATCC. The tumor cell line was routinely cultured in RPMI medium (PAA Laboratories, Austria) supplemented with 10% fetal bovine serum (PAA Laboratories, Austria) and 2 mM L-glutamine, at 37° C. in a water-saturated atmosphere at 5% CO2.
Passage 3 of A549 cells was used for in vivo injection. 2×10^6 cells in PBS were injected intravenously (i.v.).
Female SCID beige mice; age 7-8 weeks at arrival (purchased from Charles River, Sulzfeld, Germany) were maintained under specific pathogen-free conditions with daily cycles of 12 h light/12 h darkness according to committed guidelines (GV-Solas; Felasa; TierschG). […]
The primary parameter was survival. The data was statistically analyzed by log rank test.

colorectal cancer = conditions: combined with 5-fluorouracil and leucovorin; first-line treatment for colorectal cancer; cited from earlier work

Row | SMILES | p (log rank test), survival compared to vehicle control ([1]; antibodies 25 mg/kg i.p. every seven days, irinotecan 20 mg/kg i.p. four times, single agents or combinations) | animal survival compared to vehicle control ([1]; single agents, antibodies 25 mg/kg i.p. every seven days (day 7-98), irinotecan 20 mg/kg i.p. day 7, 10, 14, 17, A549 cells injected i.v.) | response rates (colorectal cancer)
1 | CCc1c2c(nc3ccc(OC(=O)N4CCC(N5CCCCC5)CC4)cc13)-c1cc3c(c(=O)n1C2)COC(=O)[C@]3(O)CC [irinotecan] | 0.017 | significantly prolonged animal survival | –
2 | O=C1[O][Pt]2([NH][C@@H]3CCCC[C@H]3[NH]2)[O]C1=O [oxaliplatin] | – | – | 25-40%
